Experiments:
[1] = system: cyclic-AMP phosphodiesterase (mouse skin PDE); test: Mouse skin phosphodiesterase (PDE) inhibition test (A); assay type: biochemical; design: key: Active: A compound is considered active if it inhibits more than theophylline, that is, to 50% of control of 1 mM concentration of compound, or to 80% of control for 0.05 mM concentration of compound; details: final concentration of test compound 10 μg./ml.; epidermal homogenate supernatant of hairless mice
[2] = system: spontaneous hypertensive rats; test: Anti-hypertensive test in conscious spontaneous hypertensive rats, mean arterial blood pressure by femoral artery puncture; assay type: in vivo, rat; details: 100 mg./kg. by gavage in 2% starch, second identical dose at the 24th hour, vehicle controls 166
Description: These compounds have been tested pharmacologically and found to have such properties with a desirable wide spread between does producing lowered blood pressure and toxic symptoms. In determining this effect of these compounds on hypertension, adult male, 16-20 weeks old, spontaneous hypertensive rats from Taconic Farms, Germantown, New York, weighing about 300 grams are used. The rats are dosed by gavage with the test compounds at the indicated dose in mg. per kg. of body weight. All doses of drug were suspended in 2% starch (2 ml./kg.). A second identical dose of the test compound is given at the 24th hour. The mean arterial blood pressure (MAP) of the conscious rats is measured directly by femoral artery puncture at the 28th hour.

Mouse Skin Phosphodiesterase (A) [1]	Structure (SMILES)	MAP (mm. Hg) 28th hour [2] [mm. Hg]	herbicidal activity (Herbicidal activity)
Active	c1cc(Nc2nncc3cncn23)n[nH]1 [4-(3-Pyrazolylamino)-imidazo[1,5-d]-as-triazine]	134	
Active	CN(C)CCNc1nncc2cncn12 [4-[(2-Dimethylaminoethyl)amino]-imidazo[1,5-d]-as-triazine]		
	CNc1nncc2cncn12 [4-methylamino-imidazo[1,5-d]-as-triazine, 4-Methylamino-imidazo[1,5-d]-as-triazine]	131	
	CCCc1nc(C)c2cnnc(SC)n12 [Example 61, 8-Methyl-4-(methylthio)-6-propylimidazo[1,5-d]-as-triazine]		possesses herbicidal activity
